Data from patent US20180244548A1, “USE OF COPPER-CARBON COMPOSITE NANOMATERIAL IN ALGAE CONTROL” (Suzhou Guanjie Nano Anti-bacteria Coating Technology Co., …, priority 2015, published 2018).
Values joined by “and” are separate entries in the source; they are usually repeats but may differ in a detail not shown here. Identical values can stand only once.

Assays:
[1] = system: scenedesmus, chlorella and microcystis aeruginosa cells; assay: scanning electron microscope appearance observation of algae cells; type: cell-based; conditions: nanomaterial 6.25-50 ppm; activated carbon 50 ppm; copper oxide 50 ppm; copper sulfate 6 ppm
[2] = system: scenedesmus (green algae), chlorella (green algae) and microcystis aeruginosa (blue algae); assay: laboratory algae growth inhibition, α content of chlorophyll over time; type: cell-based; conditions: copper sulfate 6 ppm

**Q.** O=S(=O)([O-])[O-].[Cu+2] [copper sulfate] was tested. Which “appearance of algae cells in scanning electron micrographs” value [1] did it give?
**A.** completely changed

**Q.** And the “inhibition time of algae growth” value [2]?
**A.** 7 to 9 days and 7 days
